# Read-outs that look alike come from different tables or passages of the source.
# What was measured:
# [1] = tested on: E. faecium CTC 492; test: MIC assay of antibiotics with ATX-101; assay type: cell-based, Enterococcus faecium; details: for MIC: Enterococcus faecium, CTC492, E. faecium CTC 492, read-out: Est MIC
# Description: (§1) The minimum inhibitory concentration (MIC) of ATX-101 (SEQ ID NO: 1289) was determined for various gram negative and gram positive bacteria. The bacteria, Pseudomonas aeruginosa ATCC 15692, Acinetobacter baumenni ATCC 19600, Escherichia coli ATCC 25922, Pseudomonas aeruginosa TO-5A (clinical isolate), Enterococous faecium CCUG 37832, Enterococcus faecium CTC 492, Micrococcus luteus ATCC 9341 and Escherichie coli NCIMB 12210 were grown in the presence of various concentrations of ATX-101 and/or antibiotic.
# (§2) ATX-101 was dissolved in Mueller-Hinton broth to 1.25 times of the desired assay concentration. Antibiotics were dissolved in Mueller-Hinton broth and Mueller-Hinton broth with ATX-101 at a concentration of 1.25 times the highest desired assay concentrations. Antibiotics were pharmaceutical grade purchased from Sigma-Aldrich.
# (§3) Two-fold serial dilutions of antibiotics were made in Mueller-Hinton with different concentrations of ATX-101, and the solutions were placed in four parallel wells is Nunc 384-well micro plates (30 μl per well in Nunc 242757 microplates). A group of 8 wells with no addition of antibiotics for each ATX-101 concentration was included on each micro plate as a growth reference.
# (§4) At the day of analysis, overnight TSB cultures inoculated from freeze stocks (6 ml in 50 ml tube tilted to 45-degrees angle, 200 rpm, 2.5 cm amplitude, 37° C.) were diluted in TSB until the OD800 was 0.10, and further diluted 1:40 in Mueller-Hinton broth. Each well in the 384-well assay plates was inoculated with 7.5 μl of the diluted culture, giving the same dilution of the culture in the assay cultures. The microplates were placed in plastic bags and incubated without shaking at 37° C. The optical density at 600 nm in the microwells was measured after approximately 19 hours of incubation, and the relative growth yield was calculated based on the growth in the reference groups. The MIC value was set to the highest concentration giving less than 30% growth in all 4 parallel wells within the sample groups. The microplates were further incubated for 6 hours, and optical density in the cultures was measured once more for confirmation of the estimated MIC-values.
# (§5) The APIM peptide was dissolved in Mueller-Hinton broth to 1.25 times of the desired assay concentration. Antibiotics were dissolved in Mueller-Hinton broth and Mueller-Hinton broth with APIM at a concentration of 1.25 times the highest desired assay concentrations. Antibiotics were pharmaceutical grade purchased from Sigma-Aldrich.
# (§6) Two-fold serial dilutions of antibiotics were made in Mueller-Hinton with different concentrations of APIM, and the solutions were placed in four parallel wells in Nunc 384-well micro plates (30 μl per well in Nunc 242757 microplates). A group of 8 wells with no addition of antibiotics for each APIM concentration was included on each micro plate as growth reference.
# as §4, with “inoculated” for “inoculated from”, “OD600” for “OD800”, “culture.” for “culture, giving the same dilution of the culture in the assay cultures.”, “yield in each well” for “yield”
# [2] = tested on: Staphylococcus aureus MRSA 1040s; test: microbe, parasite or virus in culture; assay type: cell-based; details: for MIC: Staphylococcus aureus, Table 6, alone, MRSA 1040s, read-out: MIC; for MIC when combined with 10 μg/ml of ATX-101: Table 6, MRSA 1040s
# Description: as §2, §3, §4, §5, §6
# as §4, with “inoculated” for “inoculated from”, “OD600” for “OD800”, “culture.” for “culture, giving the same dilution of the culture in the assay cultures.”, “yield in each well” for “yield”
# In view of the anti-bacterial effect of ATX-101 on strains of MRSA, the MIC for a variety of APIM variants was determined using Staphylococcus aureus MRSA 1040s. […] A cell penetrating peptide (SEQ ID NO: 337) present in all of the APIM peptides, was used as a negative control.
# Next, the effect of APIM peptides on the MIC of antibiotics was determined using Staphylococcus aureus MRSA 1040s.
# The MICS for various APIM peptides were determined for various bacteria, as described above.
# [3] = tested on: E. coli NCIMB 12210; test: MIC assay of antibiotics with ATX-101; assay type: cell-based, Escherichia coli; details: Escherichia coli, NCIMB12210, E. coli NCIMB 12210, read-out: Est MIC
# Description: as §1, §2, §3, §4, §5, §6
# as §4, with “inoculated” for “inoculated from”, “OD600” for “OD800”, “culture.” for “culture, giving the same dilution of the culture in the assay cultures.”, “yield in each well” for “yield”
# [4] = tested on: A. baumanii ATCC 19606; test: MIC assay of antibiotics with ATX-101; assay type: cell-based; details: for MIC: Acinetobacter baumannii; for Est MIC: A. baumanii ATCC 19606
# Description: as §5, §6
# as §4, with “inoculated” for “inoculated from”, “OD600” for “OD800”, “culture.” for “culture, giving the same dilution of the culture in the assay cultures.”, “yield in each well” for “yield”
# [5] = ATCC19606, A. baumanii ATCC 19606, APIM (ATX-101) conc. 2 μg/ml, read-out: Est MIC
# [6] = ATCC19606, A. baumanii ATCC 19606, APIM (ATX-101) conc. 4 μg/ml, read-out: Est MIC
# [7] = ATCC19606, A. baumanii ATCC 19606, APIM conc. 0 μg/ml, read-out: Est MIC
# [8] = ATCC19606, A. baumanii ATCC 19606, APIM (ATX-101) conc. 8 μg/ml, read-out: Est MIC
Compound,MIC ([1]; APIM (ATX-101) conc. 6.5 μg/ml) [µg/mL],MIC ([1]; APIM (ATX-101) conc. 13 μg/ml) [µg/mL],MIC ([1]; APIM conc. 0 μg/ml) [µg/mL],"MIC [4, 5] [µg/mL]","MIC [4, 6] [µg/mL]","MIC [4, 7] [µg/mL]",other results
CC1(C)S[C@@H]2[C@H](NC(=O)[C@H](N)c3ccccc3)C(=O)N2[C@H]1C(=O)O [Ampicillin],0.5,0.5,1,–,–,–,"ampicillin concentration sufficient to inhibit bacterial growth ([1]; combined with 6.5 μg/ml or 13 μg/ml ATX-101, FIG. 3): about 0.5 μg/ml; ampicillin concentration required for the same level of inhibition ([1]; without ATX-101, FIG. 3): 1 µg/mL"
CN[C@@H]1[C@@H](O[C@H]2O[C@H](CO)[C@@H](N)[C@H](O)[C@H]2O)OC2C[C@@H](N)[C@@H](O[C@H]3[C@H](O)[C@@H](O)[C@H](N)C[C@@H]3N)OC2[C@@H]1O (stereo partly drawn) [Apramycin],64,32,64,–,–,–,–
"CC[C@H]1OC(=O)[C@H](C)[C@@H](O[C@H]2C[C@@](C)(OC)[C@@H](O)[C@H](C)O2)[C@H](C)[C@@H](O[C@@H]2O[C@H](C)C[C@H](N(C)C)[C@H]2O)[C@](C)(O)C[C@@H](C)CN(C)[C@H](C)[C@@H](O)[C@]1(C)O [Azithromycin, reference compound]",–,–,–,–,–,–,MIC [2]: > 1030 µg/mL; MIC when combined with 10 μg/ml of ATX-101 [2]: 8 µg/mL
O=C(N[C@H](CO)[C@H](O)c1ccc([N+](=O)[O-])cc1)C(Cl)Cl [Chloramphenicol],2,1,2,–,–,–,MIC ([3]; APIM (ATX-101) conc. 2 μg/ml): 2 µg/mL; MIC ([3]; APIM (ATX-101) conc. 4 μg/ml): 2 µg/mL; MIC ([3]; APIM (ATX-101) conc. 8 μg/ml): 1 µg/mL; MIC ([3]; APIM conc. 0 μg/ml): 2 µg/mL
CC[C@H]1OC(=O)[C@H](C)[C@@H](O[C@H]2C[C@@](C)(OC)[C@@H](O)[C@H](C)O2)[C@H](C)[C@@H](O[C@@H]2O[C@H](C)C[C@H](N(C)C)[C@H]2O)[C@](C)(O)C[C@@H](C)C(=O)[C@H](C)[C@@H](O)[C@]1(C)O [Erythromycin],4,1,4,–,–,–,MIC [2]: > 1030 µg/mL; MIC when combined with 10 μg/ml of ATX-101 [2]: 2 µg/mL
C[C@@H](O)[C@H]1C(=O)N2C(C(=O)O)=C(SCCN=CN)C[C@H]12 [Imipenem],2,2,4,0.125,0.125,0.25,–
CC[C@@]1([C@@H]2O[C@@H]([C@H]3O[C@@](O)(CO)[C@H](C)C[C@@H]3C)C[C@@H]2C)CC[C@H]([C@]2(C)CC[C@]3(C[C@H](O)[C@@H](C)[C@@H]([C@@H](C)[C@@H](OC)[C@H](C)C(=O)O)O3)O2)O1 [Monensin],0.5,0.5,1,64,64,64,"MIC [4, 8]: 32 µg/mL"
CO[C@@H]1[C@@H](OC(N)=O)[C@@H](O)[C@H](Oc2ccc3c(O)c(NC(=O)c4ccc(O)c(CC=C(C)C)c4)c(=O)oc3c2C)OC1(C)C [Novobiocin],–,–,–,8,8,8,"MIC [4, 8]: 2 µg/mL; MIC ([3]; APIM (ATX-101) conc. 2 μg/ml): 32 µg/mL; MIC ([3]; APIM (ATX-101) conc. 4 μg/ml): 8 µg/mL; MIC ([3]; APIM (ATX-101) conc. 8 μg/ml): 4 µg/mL; MIC ([3]; APIM conc. 0 μg/ml): 64 µg/mL"
CO[C@H]1/C=C/O[C@@]2(C)Oc3c(C)c(O)c4c(O)c(c(/C=N/N5CCN(C)CC5)c(O)c4c3C2=O)NC(=O)/C(C)=C\C=C\[C@H](C)[C@H](O)[C@@H](C)[C@@H](O)[C@@H](C)[C@H](OC(C)=O)[C@@H]1C [Rifampicin],32,4,16,2,1,2,"MIC [4, 8]: 1 µg/mL; MIC ([1]; APIM (ATX-101) conc. 20 μg/ml): 8 µg/mL"
NC[C@H]1O[C@H](O[C@H]2[C@H](O)[C@@H](O[C@H]3O[C@H](CO)[C@@H](O)[C@H](N)[C@H]3O)[C@H](N)C[C@@H]2N)[C@H](N)C[C@@H]1O [Tobramycin],64,32,64,–,–,–,–
CN[C@H](CC(C)C)C(=O)N[C@H]1C(=O)N[C@@H](CC(N)=O)C(=O)N[C@H]2C(=O)N[C@H]3C(=O)N[C@H](C(=O)N[C@H](C(=O)O)c4cc(O)cc(O)c4-c4cc3ccc4O)[C@H](O)c3ccc(c(Cl)c3)Oc3cc2cc(c3O[C@@H]2O[C@H](CO)[C@@H](O)[C@H](O)[C@H]2O[C@H]2C[C@](C)(N)[C@H](O)[C@H](C)O2)Oc2ccc(cc2Cl)[C@H]1O [Vancomycin],–,–,–,–,–,–,"MIC ([4]; ATCC19606, read-out: Est MIC, A. baumanii ATCC 19606, APIM (ATX-101) conc. 2 μg/ml): 32 µg/mL; MIC ([4]; ATCC19606, read-out: Est MIC, A. baumanii ATCC 19606, APIM (ATX-101) conc. 4 μg/ml): 16 µg/mL; MIC ([4]; ATCC19606, read-out: Est MIC, A. baumanii ATCC 19606, APIM conc. 0 μg/ml): 32 µg/mL"
Gentamicin,–,–,–,–,–,–,Est MIC ([4]; APIM (ATX-101) conc. 2 μg/ml): 16 µg/mL; Est MIC ([4]; APIM (ATX-101) conc. 4 μg/ml): 8 µg/mL; Est MIC ([4]; APIM conc. 0 μg/ml): 16 µg/mL
